Activity calls are given as the source filed them.

Test [1] addresses T1, High affinity choline transporter 1 (Homo sapiens, UniProt Q9GZV3).
T1 sequence (Q9GZV3 whole entry): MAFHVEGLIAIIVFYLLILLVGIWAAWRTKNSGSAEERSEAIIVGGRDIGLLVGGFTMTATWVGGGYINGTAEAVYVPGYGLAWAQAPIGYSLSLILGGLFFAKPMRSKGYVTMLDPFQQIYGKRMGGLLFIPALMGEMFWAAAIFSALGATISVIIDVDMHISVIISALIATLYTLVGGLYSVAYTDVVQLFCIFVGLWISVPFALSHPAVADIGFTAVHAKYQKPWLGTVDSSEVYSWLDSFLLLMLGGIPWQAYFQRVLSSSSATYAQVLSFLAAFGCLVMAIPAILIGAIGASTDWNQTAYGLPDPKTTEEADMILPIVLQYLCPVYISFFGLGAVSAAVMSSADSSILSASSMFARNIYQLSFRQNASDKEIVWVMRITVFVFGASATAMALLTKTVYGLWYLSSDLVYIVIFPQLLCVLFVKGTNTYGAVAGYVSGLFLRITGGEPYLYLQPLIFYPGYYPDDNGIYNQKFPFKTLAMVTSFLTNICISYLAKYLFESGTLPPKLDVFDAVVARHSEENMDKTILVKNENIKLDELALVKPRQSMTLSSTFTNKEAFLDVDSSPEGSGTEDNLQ
The test can be described thus: human choline transporter blockers, potency – cell-based, 5-point CRC, membrane potential dye, dose response (AID 504840). The format is functional.

Test [2] addresses Serine/threonine-protein phosphatase PP1-alpha catalytic subunit (Homo sapiens, UniProt P62136). The test can be described thus: inhibition of protein phosphatase 1 activity – biochemical, fluorescence, dose response (AID 2394).
The target in test [3] is T2, Serine/threonine-protein phosphatase (Homo sapiens, UniProt Q9BPW0).
T2 sequence (Q9BPW0 whole entry): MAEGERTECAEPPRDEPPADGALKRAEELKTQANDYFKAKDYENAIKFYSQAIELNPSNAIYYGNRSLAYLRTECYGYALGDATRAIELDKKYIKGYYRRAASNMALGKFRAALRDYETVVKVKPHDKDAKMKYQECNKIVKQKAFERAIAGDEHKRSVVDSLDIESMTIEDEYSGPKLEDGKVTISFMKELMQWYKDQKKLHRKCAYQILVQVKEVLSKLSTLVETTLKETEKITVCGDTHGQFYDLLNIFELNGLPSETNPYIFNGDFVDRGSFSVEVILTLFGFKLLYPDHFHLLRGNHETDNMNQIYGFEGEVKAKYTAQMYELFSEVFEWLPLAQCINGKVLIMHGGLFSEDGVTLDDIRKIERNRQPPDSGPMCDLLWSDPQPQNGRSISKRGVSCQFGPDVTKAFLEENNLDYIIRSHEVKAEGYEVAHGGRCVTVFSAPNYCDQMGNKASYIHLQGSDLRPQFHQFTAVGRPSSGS
The test can be described thus: inhibition of protein phosphatase 5 activity – biochemical, fluorescence, dose response (AID 2395).

For test [4], the target named is T3, Replicative DNA helicase DnaB (Mycobacterium tuberculosis, UniProt P9WMR3).
T3 sequence (P9WMR3 whole entry): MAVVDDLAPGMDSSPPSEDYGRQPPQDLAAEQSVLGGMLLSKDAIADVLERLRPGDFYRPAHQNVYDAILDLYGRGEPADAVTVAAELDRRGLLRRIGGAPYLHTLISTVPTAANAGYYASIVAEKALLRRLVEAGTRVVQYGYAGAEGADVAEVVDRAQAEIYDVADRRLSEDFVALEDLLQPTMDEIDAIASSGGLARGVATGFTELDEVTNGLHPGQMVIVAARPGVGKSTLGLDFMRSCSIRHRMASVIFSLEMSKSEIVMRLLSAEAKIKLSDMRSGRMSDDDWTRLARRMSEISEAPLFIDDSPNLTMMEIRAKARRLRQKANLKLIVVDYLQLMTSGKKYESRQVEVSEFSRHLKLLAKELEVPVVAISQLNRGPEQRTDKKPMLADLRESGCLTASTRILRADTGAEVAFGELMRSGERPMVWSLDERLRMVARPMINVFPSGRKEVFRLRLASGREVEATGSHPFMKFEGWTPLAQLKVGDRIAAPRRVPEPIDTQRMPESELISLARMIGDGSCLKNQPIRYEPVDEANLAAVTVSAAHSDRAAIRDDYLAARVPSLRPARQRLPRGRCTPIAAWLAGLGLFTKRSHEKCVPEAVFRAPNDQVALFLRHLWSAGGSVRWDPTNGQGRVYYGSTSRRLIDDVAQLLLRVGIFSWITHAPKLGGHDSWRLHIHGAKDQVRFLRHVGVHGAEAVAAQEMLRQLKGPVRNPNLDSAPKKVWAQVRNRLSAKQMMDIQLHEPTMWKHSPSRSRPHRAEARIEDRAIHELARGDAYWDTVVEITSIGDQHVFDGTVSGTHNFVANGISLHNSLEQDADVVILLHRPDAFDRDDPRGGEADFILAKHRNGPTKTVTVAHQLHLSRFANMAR
The test can be described thus: DnaB intein splicing inhibitors, dose response, biochemical, cell-free fluorescence (AID 449749). The class given is functional.

Test [5] has as its target T1, High affinity choline transporter 1. The test is described as follows: human choline transporter blockers, potency – cell-based, 10-point CRC, membrane potential dye, dose response (AID 588401).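 Further: membrane potential dye fluorescence of choline-evoked depolarization via CHT.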 The class given is functional.
Test [6] has as its target T4, Fatty acid synthase (Homo sapiens, UniProt P49327). The test can be described thus: inhibition of human FAS-TE enzyme activity – biochemical, kinetic fluorescence intensity, dose response (AID 624326).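 Further: rate of fluorescence rise from hydrolysis of a fluorogenic O-methyl fluorescein ester substrate.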 The class given is functional.
Another test has as its target T5, Protein RecA (Mycobacterium tuberculosis, UniProt P9WHJ3).
T5 sequence (P9WHJ3 whole entry): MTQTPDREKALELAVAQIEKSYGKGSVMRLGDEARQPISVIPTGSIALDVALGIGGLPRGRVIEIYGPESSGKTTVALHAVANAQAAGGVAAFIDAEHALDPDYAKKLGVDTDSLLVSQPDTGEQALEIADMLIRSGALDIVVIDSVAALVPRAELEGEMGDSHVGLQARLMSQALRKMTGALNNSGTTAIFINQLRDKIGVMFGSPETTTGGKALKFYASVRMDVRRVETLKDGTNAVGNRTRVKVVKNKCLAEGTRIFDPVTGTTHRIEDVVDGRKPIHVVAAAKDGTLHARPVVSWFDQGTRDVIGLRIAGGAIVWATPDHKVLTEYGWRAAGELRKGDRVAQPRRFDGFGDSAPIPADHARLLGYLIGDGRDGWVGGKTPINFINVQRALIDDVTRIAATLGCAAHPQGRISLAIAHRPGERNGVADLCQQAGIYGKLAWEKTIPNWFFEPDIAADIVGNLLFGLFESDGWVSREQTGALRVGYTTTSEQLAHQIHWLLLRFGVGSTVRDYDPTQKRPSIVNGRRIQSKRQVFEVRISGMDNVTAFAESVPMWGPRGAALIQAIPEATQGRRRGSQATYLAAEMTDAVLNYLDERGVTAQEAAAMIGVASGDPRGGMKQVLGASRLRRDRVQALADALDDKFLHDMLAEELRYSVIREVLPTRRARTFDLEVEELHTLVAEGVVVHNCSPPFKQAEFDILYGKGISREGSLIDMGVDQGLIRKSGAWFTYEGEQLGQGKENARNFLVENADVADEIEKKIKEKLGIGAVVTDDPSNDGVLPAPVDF
The test is described as follows: Fluorescence Cell-Free Homogeneous Dose Retest to Identify Inhibitors of RecA-Intein Splicing Activity. [Related pubchem assays (depositor defined):AID2097, AID2223, AID489010, AID492950]. The format is functional.

The target in test [7] is T4, Fatty acid synthase. The test is described as follows: inhibition of human FAS-TE enzyme activity – biochemical, endpoint fluorescence intensity, uHTS hits, dose response (AID 624327).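 Further: fluorescence from hydrolysis of an O-methyl fluorescein acyl ester substrate by the enzyme.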 The class given is functional.
The next test deals with Genome polyprotein (dengue virus type 2, UniProt P29990). The test is described as follows: flavivirus cap methylation enzyme inhibition – biochemical, confirmation dose response, primary screen (AID 588689). The format is functional.
Chain of Genome polyprotein (P29990 2492-3391 limits assumed): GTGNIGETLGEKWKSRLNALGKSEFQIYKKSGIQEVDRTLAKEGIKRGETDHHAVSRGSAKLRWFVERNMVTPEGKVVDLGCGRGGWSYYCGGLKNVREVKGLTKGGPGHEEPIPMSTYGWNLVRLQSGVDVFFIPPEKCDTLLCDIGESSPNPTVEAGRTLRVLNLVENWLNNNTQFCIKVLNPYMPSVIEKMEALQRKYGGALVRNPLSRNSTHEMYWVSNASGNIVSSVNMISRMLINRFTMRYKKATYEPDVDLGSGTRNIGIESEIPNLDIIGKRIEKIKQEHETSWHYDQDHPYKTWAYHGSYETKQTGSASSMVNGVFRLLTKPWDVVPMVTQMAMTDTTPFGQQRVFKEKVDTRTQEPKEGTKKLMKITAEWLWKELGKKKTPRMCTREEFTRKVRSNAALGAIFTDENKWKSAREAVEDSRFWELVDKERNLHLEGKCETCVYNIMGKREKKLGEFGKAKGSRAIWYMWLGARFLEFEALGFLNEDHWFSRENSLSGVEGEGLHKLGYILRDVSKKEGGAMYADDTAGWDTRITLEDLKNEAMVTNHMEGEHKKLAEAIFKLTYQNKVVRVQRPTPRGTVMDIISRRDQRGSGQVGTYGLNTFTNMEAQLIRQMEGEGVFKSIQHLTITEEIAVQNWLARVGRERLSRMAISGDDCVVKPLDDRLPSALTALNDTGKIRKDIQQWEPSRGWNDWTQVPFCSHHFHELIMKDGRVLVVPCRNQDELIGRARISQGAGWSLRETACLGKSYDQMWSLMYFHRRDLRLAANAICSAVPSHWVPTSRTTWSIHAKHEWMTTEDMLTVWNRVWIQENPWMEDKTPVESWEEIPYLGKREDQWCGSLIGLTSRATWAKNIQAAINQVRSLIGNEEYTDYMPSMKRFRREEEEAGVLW

T4 sequence (P49327 whole entry): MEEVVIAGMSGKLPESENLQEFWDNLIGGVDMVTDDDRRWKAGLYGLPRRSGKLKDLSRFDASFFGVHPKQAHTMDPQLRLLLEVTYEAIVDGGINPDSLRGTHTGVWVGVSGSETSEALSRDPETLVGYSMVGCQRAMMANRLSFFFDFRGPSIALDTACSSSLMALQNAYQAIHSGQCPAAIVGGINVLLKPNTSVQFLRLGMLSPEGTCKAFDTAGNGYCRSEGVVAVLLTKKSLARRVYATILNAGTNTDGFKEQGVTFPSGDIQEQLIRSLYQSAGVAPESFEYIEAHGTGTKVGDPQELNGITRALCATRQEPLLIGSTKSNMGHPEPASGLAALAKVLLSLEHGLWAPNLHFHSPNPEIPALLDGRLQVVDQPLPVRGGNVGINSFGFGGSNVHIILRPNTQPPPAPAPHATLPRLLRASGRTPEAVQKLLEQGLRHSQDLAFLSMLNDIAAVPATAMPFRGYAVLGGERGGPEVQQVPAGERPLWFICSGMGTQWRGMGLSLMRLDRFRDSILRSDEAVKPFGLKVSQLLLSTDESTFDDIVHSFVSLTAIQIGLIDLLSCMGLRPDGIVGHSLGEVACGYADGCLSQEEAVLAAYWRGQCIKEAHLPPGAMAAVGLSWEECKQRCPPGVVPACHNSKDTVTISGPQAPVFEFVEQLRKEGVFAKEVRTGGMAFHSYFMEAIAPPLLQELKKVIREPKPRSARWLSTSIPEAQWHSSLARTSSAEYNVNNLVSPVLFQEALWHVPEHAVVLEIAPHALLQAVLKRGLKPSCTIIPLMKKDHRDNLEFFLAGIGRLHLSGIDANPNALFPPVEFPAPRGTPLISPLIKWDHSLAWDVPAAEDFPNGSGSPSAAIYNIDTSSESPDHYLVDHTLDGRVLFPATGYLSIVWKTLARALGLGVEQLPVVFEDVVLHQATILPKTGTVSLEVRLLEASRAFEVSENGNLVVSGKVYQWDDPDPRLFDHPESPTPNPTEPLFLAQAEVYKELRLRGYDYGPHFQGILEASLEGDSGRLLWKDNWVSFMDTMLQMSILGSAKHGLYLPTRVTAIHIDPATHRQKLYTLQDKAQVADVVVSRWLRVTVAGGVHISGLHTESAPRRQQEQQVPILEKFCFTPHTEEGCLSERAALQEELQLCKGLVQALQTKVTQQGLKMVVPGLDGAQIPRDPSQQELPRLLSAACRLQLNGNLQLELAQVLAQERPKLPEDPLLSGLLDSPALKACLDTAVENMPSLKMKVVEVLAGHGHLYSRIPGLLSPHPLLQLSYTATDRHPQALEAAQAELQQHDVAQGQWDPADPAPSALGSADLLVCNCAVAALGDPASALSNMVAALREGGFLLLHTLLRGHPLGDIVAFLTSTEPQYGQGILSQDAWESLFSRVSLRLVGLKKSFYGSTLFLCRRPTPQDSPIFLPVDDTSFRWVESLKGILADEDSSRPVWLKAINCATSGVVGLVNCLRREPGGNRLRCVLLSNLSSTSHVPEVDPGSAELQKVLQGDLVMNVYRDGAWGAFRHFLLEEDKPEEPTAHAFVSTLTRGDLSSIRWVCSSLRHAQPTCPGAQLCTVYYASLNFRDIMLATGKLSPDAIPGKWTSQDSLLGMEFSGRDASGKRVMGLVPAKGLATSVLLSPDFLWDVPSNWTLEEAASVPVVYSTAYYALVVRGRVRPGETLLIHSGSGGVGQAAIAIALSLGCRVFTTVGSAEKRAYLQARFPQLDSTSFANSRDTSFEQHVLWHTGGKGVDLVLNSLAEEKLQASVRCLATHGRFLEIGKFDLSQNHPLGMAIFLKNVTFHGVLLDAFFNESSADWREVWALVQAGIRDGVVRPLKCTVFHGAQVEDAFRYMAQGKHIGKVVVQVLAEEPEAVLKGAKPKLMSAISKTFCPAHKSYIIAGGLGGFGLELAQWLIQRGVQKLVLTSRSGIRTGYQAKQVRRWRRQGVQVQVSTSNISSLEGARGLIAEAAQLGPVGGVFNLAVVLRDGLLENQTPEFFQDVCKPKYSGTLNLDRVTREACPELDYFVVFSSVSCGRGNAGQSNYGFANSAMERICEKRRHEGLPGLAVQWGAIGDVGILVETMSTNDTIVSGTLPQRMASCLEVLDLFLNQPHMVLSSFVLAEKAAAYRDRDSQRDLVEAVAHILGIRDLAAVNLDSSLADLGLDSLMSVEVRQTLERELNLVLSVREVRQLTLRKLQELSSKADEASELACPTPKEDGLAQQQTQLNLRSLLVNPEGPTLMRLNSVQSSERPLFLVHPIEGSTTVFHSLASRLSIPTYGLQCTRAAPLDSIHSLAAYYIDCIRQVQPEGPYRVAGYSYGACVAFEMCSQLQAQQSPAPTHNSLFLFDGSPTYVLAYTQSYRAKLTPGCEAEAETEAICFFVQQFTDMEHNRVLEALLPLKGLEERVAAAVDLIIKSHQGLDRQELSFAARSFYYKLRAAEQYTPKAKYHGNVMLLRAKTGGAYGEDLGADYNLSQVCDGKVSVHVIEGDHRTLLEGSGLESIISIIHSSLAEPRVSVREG
Chain of Serine/threonine-protein phosphatase PP1-alpha catalytic subunit (P62136 whole entry): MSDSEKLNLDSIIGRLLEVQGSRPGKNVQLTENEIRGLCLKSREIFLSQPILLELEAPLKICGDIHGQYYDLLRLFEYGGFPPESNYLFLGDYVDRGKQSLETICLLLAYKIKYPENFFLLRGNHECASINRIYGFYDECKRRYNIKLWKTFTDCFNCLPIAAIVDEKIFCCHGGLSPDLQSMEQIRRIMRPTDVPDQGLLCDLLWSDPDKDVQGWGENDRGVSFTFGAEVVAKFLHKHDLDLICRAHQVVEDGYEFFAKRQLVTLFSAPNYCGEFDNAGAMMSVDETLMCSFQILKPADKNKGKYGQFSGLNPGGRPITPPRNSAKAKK

Turning to `Cc1[nH]n(-c2ccccc2)c(=O)c1C(c1ccc([N+](=O)[O-])cc1)c1c(C)[nH]n(-c2ccccc2)c1=O`, the IC50 was 10.3 µM (active) in test [1]; 29.9 µM (not active) in test [2]; 9.57 µM (active) in test [3]; 2.82 µM (active) in test [5]; 5.6 µM (active) at Fatty acid synthase [6]; 3.19 µM (active) on Fatty acid synthase [7]. Further, at Genome polyprotein, the IC50 is 33.2 µM (active). Also, the half-maximal activity concentration (AC50) in test [4] was 1.24 µM (active). Also, at Protein RecA, the 50% effective concentration (EC50) was 0.39 µM (active).
